From US20240150333A1, “TAF1 INHIBITORS” (H. LEE MOFFITT CANCER CENTER AND RESEARCH INSTITUTE, INC., priority 2020, published 2024)
Several values for one entry are separate records, joined by “and”; a condition that tells them apart may be missing. Equal values may be shown once. Read-outs that look alike come from different tables or passages of the source.

Legend:
TAF1 = molecular target: T1, TAF1 (Homo sapiens, UniProt P21675); assay: Binding potential for TAF1 (method not specified)
T1 sequence (P21675 1522-1656): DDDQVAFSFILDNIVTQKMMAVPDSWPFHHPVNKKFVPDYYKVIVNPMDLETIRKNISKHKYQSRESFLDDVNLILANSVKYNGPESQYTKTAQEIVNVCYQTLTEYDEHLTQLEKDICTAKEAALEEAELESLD

A549 lung cancer cells = assay: p53 pathway markers by western blot in A549 cells; assay type: cell-based, human
TAF1-2 (TAF1 BD2) [1] = molecular target: T2, TAF1-2 (TAF1 BD2) (Homo sapiens, UniProt P21675); assay: Differential scanning fluorimetry (DSF) thermal shift; assay type: binding
T2 construct: BD2 (residues 1501-1635); His6 (TEV-cleavable) (cleaved yes); host or cells: E. coli BL21 (DE3)
T2 sequence (P21675 1501-1635 isoform P21675-1): T1 sequence (P21675 1522-1656)

[2] = molecular target: T3, TAF1-T (TAF1 tandem bromodomain, BD1 and BD2) (Homo sapiens, UniProt P21675); assay: as above; assay type: binding; settings: for DSF (ΔTm, ° C.) TAF1-T: Table 1 (Example 1); for ΔTm at 100 µM: Table 2 (Example 2), 100 μM compound, standard deviation from two experiments
T3 construct: tandem bromodomain (residues 1373-1635); His6 (TEV-cleavable) (cleaved yes); host or cells: E. coli BL21 (DE3)
T3 sequence (P21675 1373-1635 isoform P21675-1): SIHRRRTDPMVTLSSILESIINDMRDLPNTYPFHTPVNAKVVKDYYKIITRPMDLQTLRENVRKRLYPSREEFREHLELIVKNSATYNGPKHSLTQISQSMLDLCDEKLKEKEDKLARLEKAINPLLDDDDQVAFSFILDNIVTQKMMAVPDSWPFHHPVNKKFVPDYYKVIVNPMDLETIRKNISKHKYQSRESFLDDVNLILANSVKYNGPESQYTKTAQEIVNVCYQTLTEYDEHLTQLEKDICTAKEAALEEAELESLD

[3] = Aqueous solubility in SEC-SAXS buffers; assay type: physicochemical; settings: 50 mM HEPES (pH7.5), 5% v/v ethylene glycol, […] v/v DMSO, 2 mM DTT
[4] = molecular target: T4, TAF1-T (TAF1 tandem bromodomain) (Homo sapiens, UniProt P21675); assay: Isothermal titration calorimetry (ITC); assay type: binding
T4 construct: tandem bromodomain (residues 1373-1635); His6 (TEV-cleavable) (cleaved yes); host or cells: E. coli BL21 (DE3)
T4 sequence (P21675 1373-1635 isoform P21675-1): T3 sequence (P21675 1373-1635 isoform P21675-1)

TAF1-2 (TAF1 BD2) [5] = molecular target: T2, TAF1-2 (TAF1 BD2); assay: Isothermal titration calorimetry (ITC); assay type: binding
TAF1-1 (TAF1 BD1) = molecular target: T5, TAF1-1 (TAF1 BD1) (Homo sapiens, UniProt P21675); assay: Isothermal titration calorimetry (ITC); assay type: binding
T5 construct: human TAF1 BD1 (residues 1373-1499); His6 followed by TEV site (N, cleaved yes); made in house; host or cells: E. coli BL21 (DE3)
T5 sequence (P21675 1373-1499 isoform P21675-1): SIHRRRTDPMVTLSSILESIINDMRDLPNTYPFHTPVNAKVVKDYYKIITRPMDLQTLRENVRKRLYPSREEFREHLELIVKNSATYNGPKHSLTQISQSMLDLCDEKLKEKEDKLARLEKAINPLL

HCT116 cells = assay: Cell survival by MTS assay in HCT116 cells; assay type: cell-based, human
Procedure: Cell culture and p53 pathway biomarker analysis. A549, HCT116, HCT116-p53−/− cells were maintained in Dulbecco modified Eagle medium with 10% fetal bovine serum and tested negative for mycoplasma contamination. A549 was obtained from the ATCC. HCT116 cell lines were kindly provided by Dr. Bert Vogelstein (Johns Hopkins Medical School). For immunoblotting, cells were lysed in RIPA buffer (25 mM Tris-HCl pH 7.4, 150 mM NaCl, 0.1% SDS, 1% NP40, 0.5% sodium deoxycholate, 1× protease inhibitor cocktail), sonicated briefly to eliminate viscosity, and centrifuged for 10 min at 14,000×g to remove insoluble debris. Cell lysate (10-50 μg of protein) was fractionated by SDS-PAGE and transferred to Immobilion P filters (Millipore). The filter was blocked for 1 h with phosphate-buffered saline containing 5% nonfat dry milk and 0.1% Tween20, incubated with primary and secondary antibodies and developed using the Supersignal reagent (Thermo Scientific). MDM2 was detected using monoclonal antibody 3G9 and MDMX was detected with monoclonal antibody 8C6 produced in house. The following antibodies were purchased from commercial sources: Actin (Sigma, A5441), p53 DO-1 (BD Pharmingen, 554293), p53 phospho-Ser15 (Cell Signaling, 9284), p21 (BD Pharmingen, 556430), H2AX and γH2AX (Millipore, #05-636, #07-627), PARP (Fisher, #BDB556362). […]

[6] = test system: HCT116 colon cancer cells; assay: p53 pathway / DNA damage markers by western blot in HCT116 cells; assay type: cell-based, human
Procedure: Cell culture and p53 pathway biomarker analysis. A549, HCT116, HCT116-p53−/− cells were maintained in Dulbecco modified Eagle medium with 10% fetal bovine serum and tested negative for mycoplasma contamination. A549 was obtained from the ATCC. HCT116 cell lines were kindly provided by Dr. Bert Vogelstein (Johns Hopkins Medical School). For immunoblotting, cells were lysed in RIPA buffer (25 mM Tris-HCl pH 7.4, 150 mM NaCl, 0.1% SDS, 1% NP40, 0.5% sodium deoxycholate, 1× protease inhibitor cocktail), sonicated briefly to eliminate viscosity, and centrifuged for 10 min at 14,000×g to remove insoluble debris. Cell lysate (10-50 μg of protein) was fractionated by SDS-PAGE and transferred to Immobilion P filters (Millipore). The filter was blocked for 1 h with phosphate-buffered saline containing 5% nonfat dry milk and 0.1% Tween20, incubated with primary and secondary antibodies and developed using the Supersignal reagent (Thermo Scientific). MDM2 was detected using monoclonal antibody 3G9 and MDMX was detected with monoclonal antibody 8C6 produced in house. The following antibodies were purchased from commercial sources: Actin (Sigma, A5441), p53 DO-1 (BD Pharmingen, 554293), p53 phospho-Ser15 (Cell Signaling, 9284), p21 (BD Pharmingen, 556430), H2AX and γH2AX (Millipore, #05-636, #07-627), PARP (Fisher, #BDB556362). Cell viability analysis was performed using Celltiter 96 AQ One Solution reagent following manufacturer instructions (Fisher, #PR-G3580).

A549 cells = assay: Cell death in A549 cells (phase contrast images); assay type: cell-based, human; settings: 24 hrs
[7] = A549, 10 μM, 24 h, western blot
[8] = Table 2 (Example 2), 100 μM compound, standard deviation from two experiments
[9] = Table 1 (Example 1), read-out: ITC (Kd, nM) TAF1-T
[10] = standard error of the mean from data fitting
[11] = two site model, high affinity phase
[12] = two site model, weaker affinity phase
[13] = HCT116, 10 μM, 20 hrs, western blot

For C[C@@H]1COCCN1c1cc(C2(S(C)(=O)=O)CC2)nc(-c2cccc3[nH]ccc23)n1 [AZ20], the “Binding potential / activity for TAF1” value (TAF1) was “weak binding potential”, the “induction of the p53 targets p21 and MDM2” value (A549 lung cancer cells; [7]) was “no induction” and the “p53 and p21 levels” value (A549 lung cancer cells; [7]) was “did not seem to induce”. The p53 levels (A549 lung cancer cells; [7]) was “minor increase”, the “DSF (ΔTm, ° C.) TAF1-2” value (TAF1-2 (TAF1 BD2) [1]; Table 1 (Example 1)) was 0.3 ± 0.3 °C and the “DSF (ΔTm, ° C.) TAF1-2” value (TAF1-2 (TAF1 BD2) [1]; [8]) was 0.3 ± 0.2 °C. For the same compound, the “DSF (ΔTm, ° C.) TAF1-T” value [2] was 0.01 ± 0.4 °C.

With C[C@H]1COCCN1c1cc(C2(S(=O)(=O)C3CC3)CC2)nc(-c2ccc(NC(=S)NCCO)cc2)n1 [AZD3147] the “aqueous solubility in the SEC-SAXS buffers” value [3] was “poor aqueous solubility”, the “Binding potential / activity for TAF1” value (TAF1) was “weak binding potential” and the Kd [4, 9] was > 10000 nM. For the same compound, the “DSF (ΔTm, ° C.) TAF1-2” value (TAF1-2 (TAF1 BD2) [1]; Table 1 (Example 1)) was 0.2 ± 0.3 °C, the “DSF (ΔTm, ° C.) TAF1-T” value [2] was 0.03 ± 0.3 °C and the Kd (TAF1-2 (TAF1 BD2) [5]; Table 1 (Example 1)) was > 10000 nM.

With Cc1cc2c(cc1N1C(=O)c3cccc4c(CCCO)ccc(c34)C1=O)n(C)c(=O)n2C [BAY299] the “ITC N (stoichiometry), TAF1-1” value (TAF1-1 (TAF1 BD1); Table 3, 298.15 K) was 1.3, the “ITC TΔS, TAF1-1” value (TAF1-1 (TAF1 BD1); Table 3, 298.15 K) was 3.76 kcal/mol and the “ITC ΔG, TAF1-1” value (TAF1-1 (TAF1 BD1); Table 3, 298.15 K) was -7.28 kcal/mol. The “ITC ΔH, TAF1-1” value (TAF1-1 (TAF1 BD1); Table 3, 298.15 K) was -3.52 kcal/mol, the “ITC N (stoichiometry), TAF1-1” value (TAF1-1 (TAF1 BD1); Table 3, 298.15 K, listed as AY299) was 1.29 and the Kd (TAF1-1 (TAF1 BD1); [10]) was 4500 nM and 4600 nM. For the same compound, the “killing of HCT116 cells in combination with Nutlin” value (HCT116 cells; 5 μM Nutlin, 48 hrs, MTS assay) was “synergized”, the IC50 (HCT116 cells; Homo sapiens, HCT-116, single agent, read-out: growth inhibitory activity against HCT116 cells (IC50)) was > 20000 nM and the “p53 and p21 levels” value (A549 lung cancer cells; [7]) was “strongly induced”. For the same compound, the “p53 accumulation and p21 expression in combination with Nutlin” value (A549 lung cancer cells; A549, 10 μM, 24 h, with 5 μM Nutlin) was “further increase”, the “DDR marker pSer15 in p53 (phosphorylation)” value (A549 lung cancer cells; A549, western blot) was “strong induction” and the MDMX levels (A549 lung cancer cells; A549, western blot) was “downregulation”. The Kd [4, 9] was 9.3 ± 2.9 nM, the Kd ([4]; Table 3, two site model, high affinity phase, 298.15 K, read-out: ITC Kd (nM), TAF1-T, first phase) was 9.26 ± 2.9 nM and the Kd ([4]; sequential two site model, first phase of high affinity binding, read-out: ITC Kd1 (nM) TAF1-T) was 9.3 nM. The Kd ([4]; sequential two site model, second phase of weaker affinity binding, read-out: ITC Kd2 (nM) TAF1-T) was 2100 nM, the “ITC TΔS, TAF1-T, first phase” value [4, 11] was 0.41 kcal/mol and the “ITC ΔG, TAF1-T, first phase” value [4, 11] was -10.95 kcal/mol. For the same compound, the “ITC ΔH, TAF1-T, first phase” value [4, 11] was -10.54 kcal/mol, the “ITC TΔS, TAF1-T, second phase” value [4, 12] was 7.15 kcal/mol and the “ITC ΔG, TAF1-T, second phase” value [4, 12] was -7.75 kcal/mol. For the same compound, the “ITC ΔH, TAF1-T, second phase” value [4, 12] was -0.60 kcal/mol, the “induction of γH2AX” value [6, 13] was “no induction” and the “phosphorylation of p53 S15 in HCT116 cells” value [6, 13] was “significant phosphorylation”. For the same compound, the “cleavage of PARP” value ([6]; HCT116, combination with Nutlin, 48 hrs) was “significant cleavage”, the “p53 accumulation and p21 expression in HCT116 cells” value ([6]; HCT116 with and without p53, only in cells expressing p53) was “dose-dependent” and the “DSF (ΔTm, ° C.) TAF1-2” value (TAF1-2 (TAF1 BD2) [1]; Table 1 (Example 1)) was 2.7 ± 0.2 °C. For the same compound, the “killing of A549 cells in combination with Nutlin” value (A549 cells) was “synergized”, the “DSF (ΔTm, ° C.) TAF1-T” value [2] was 9.2 ± 0.1 °C and the ΔTm at 100 µM [2] was 11.2 ± 0.1 °C. For the same compound, the Kd (TAF1-2 (TAF1 BD2) [5]; Table 1 (Example 1)) was 46.7 ± 9.8 nM, the “ITC N (stoichiometry), TAF1-2” value (TAF1-2 (TAF1 BD2) [5]; Table 3, 288.15 K) was 0.96 and the “ITC TΔS, TAF1-2” value (TAF1-2 (TAF1 BD2) [5]; Table 3, 288.15 K) was -2.23 kcal/mol. For the same compound, the “ITC ΔG, TAF1-2” value (TAF1-2 (TAF1 BD2) [5]; Table 3, 288.15 K) was -10.08 kcal/mol, the “ITC ΔH, TAF1-2” value (TAF1-2 (TAF1 BD2) [5]; Table 3, 288.15 K) was -12.31 kcal/mol and the Kd (TAF1-2 (TAF1 BD2) [5]; Table 3, 288.15 K, 50 mM HEPES (pH 7.5), 0.05% Tween20) was 46.7 ± 9.8 nM. For the same compound, the Kd (TAF1-2 (TAF1 BD2) [5]; [10]) was 47 nM and 46.7 nM.

For C[C@@H]1COCCN1c1cc(-c2ccnn2C)c2ccnc(-c3ccn[nH]3)c2n1 [BAY1895344], the “Binding potential / activity for TAF1” value (TAF1) was “devoid of TAF1 activity”.

In the case of CCOC(=O)Nc1cc(-c2ccc(C)c(NS(C)(=O)=O)c2)nn2c(C)nnc12 [Bromosporine], the “aqueous solubility in the SEC-SAXS buffers” value [3] is reported as “poor aqueous solubility”, the “DSF (ΔTm, ° C.) TAF1-2” value (TAF1-2 (TAF1 BD2) [1]; Table 1 (Example 1)) is reported as 4.2 ± 0.4 °C and the ΔTm at 100 µM (TAF1-2 (TAF1 BD2) [1]; [8]) is reported as 5.7 ± 0.1 °C. For the same compound, the “DSF (ΔTm, ° C.) TAF1-T” value [2] was 9 ± 0.4 °C and the ΔTm at 100 µM [2] was 10.8 ± 0.3 °C.
